Results on ten compounds are retold here after ChEMBL document CHEMBL1201862, “PubChem BioAssay data set” (2004).

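Dose response: 5 concentrations. Exposure: 48 h. Format: 96-well plates. Endpoint: linear interpolation; highest concentration if not reached. GI50 marks 50% less growth.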 Active and inactive are the calls of the source. Rule as the data show it: active = GI50 up to about 1.1 µM and inactive = higher. A value given as a limit tells only on which side of the number the result lay.

Assay in all cases: NCI tumour cell line growth inhibition, 48 h
Assay [1] has as its system SR.
Assay [2] concerns A498.
In assay [3] the test system is HL-60.
Assay [4] concerns HCC 2998.
The test system of assay [5] is NCI-H460.
Assay [6] deals with CCRF-CEM.
The test system of assay [7] is NCI-H522.
Assay [8] has as its system 786-0.
Assay [9] relates to ACHN.
In assay [10] the test system is LOX IMVI.
Assay [11] relates to SNB-19.
For assay [12], the system named is SK-MEL-28.
Assay [13] relates to RXF 393.
For assay [14], the system named is PC-3.
The subject of assay [15] is SNB-75.
For assay [16], the system named is MDA-N.
The subject of assay [17] is MDA-MB-231.
The test system of assay [18] is HOP-62.
Assay [19] relates to SF-268.
Assay [20] relates to EKVX.

Turning to `Cc1c(C#N)c(N)n(C2OC(CO)C(O)C(O)C2O)c(=S)c1C#N` (stereo not given), the GI50 in assay [1], in [2], in assay [3], in assay [4], in assay [5] and in assay [6] was > 100 µM (inactive) throughout. The GI50 in [7], in assay [8], in assay [9], in assay [10], in [11] and in assay [12] was > 100 µM (inactive) each time. Moreover, the GI50 in [13], in assay [14], in assay [15], in [16], in assay [17] and in assay [18] was > 100 µM (inactive) throughout. Also, the GI50 in assay [19] and in assay [20] was > 100 µM (inactive) in each case.

Consider `CC(=O)Nc1cc([As](=O)(O)O)ccc1O` [ACETARSONE], for which the GI50 in assay [1], in assay [2], in assay [3], in assay [4], in [5] and in assay [6] was > 100 µM (inactive) throughout. The GI50 in assay [7], in [8], in assay [9], in assay [10], in assay [11] and in [12] was > 100 µM (inactive) each time. Besides, the GI50 in [13], in [14], in [15], in [16], in [17] and in assay [18] was > 100 µM (inactive) throughout. The GI50 in assay [19] and in assay [20] was > 100 µM (inactive) in each case.

In the case of `FC(F)(F)c1ccc(C2ON=C(c3ccccc3)N2C23CC4CC(CC(C4)C2)C3)cc1` (stereo not given), the GI50 in [1], in assay [2], in [3], in [4], in assay [5] and in assay [6] was > 10 µM (inactive) each time. The GI50 in assay [7], in [8], in assay [9], in assay [10], in [11] and in assay [12] was > 10 µM (inactive) throughout. In addition, the GI50 in [13], in [14], in assay [15], in assay [16], in [17] and in [18] was > 10 µM (inactive) in each case. Also, the GI50 in assay [19] and in [20] was > 10 µM (inactive) each time.

Turning to `N#Cc1nc(NC(=O)c2ccccc2)sc1N`, the GI50 in [1] is > 6.01 µM (inactive); in [2] it was > 10 µM (inactive); in assay [3], 3 µM (inactive); in [4] it was > 10 µM (inactive); in [5], > 10 µM (inactive); in assay [6], 4.54 µM (inactive). In addition, the GI50 in [7], in assay [8], in assay [9], in assay [10], in assay [11] and in assay [12] was > 10 µM (inactive) in each case. For the same compound, the GI50 in [13], in assay [14], in assay [15], in [16], in assay [17] and in [18] was > 10 µM (inactive) in each case. For the same compound, the GI50 in assay [19] and in [20] was > 10 µM (inactive) throughout.

In the case of `O=C1C=CC(=O)c2c1ccc1c3ccccc3n(-c3ccccc3[N+](=O)[O-])c21`, the GI50 in [1] was 0.444 µM (active); in assay [2] it was 20.7 µM (inactive); in [3] it was 1.06 µM (active); in assay [4], 3.42 µM (inactive); in assay [5], 9.82 µM (inactive); in [6], 0.181 µM (active). The GI50 in assay [7] is 1.63 µM (inactive); in assay [8], 2.13 µM (inactive); in assay [9], 1.71 µM (inactive); in [10], 1.93 µM (inactive); in assay [11] it was 9.84 µM (inactive); in [12], 8.55 µM (inactive). Moreover, the GI50 in [13] is 1.62 µM (inactive); in [14] it was 3.65 µM (inactive); in [15], 13.9 µM (inactive); in assay [16] it was 3.04 µM (inactive); in assay [17] it was 2.76 µM (inactive); in [18], 18.6 µM (inactive). In addition, the GI50 in [19] is 2.44 µM (inactive); in assay [20], 8.22 µM (inactive).

Take `CC(=O)OCC1OC(Nn2c(=O)[nH]c3ccccc3c2=O)C(OC(C)=O)C(OC(C)=O)C1OC(C)=O` (stereo not given): the GI50 in [1] was > 100 µM (inactive); in [2], > 100 µM (inactive); in assay [3], > 100 µM (inactive); in assay [4], 15 µM (inactive); in [5] it was 27.2 µM (inactive); in assay [6] it was 40.2 µM (inactive). In addition, the GI50 in [7], in [8], in [9], in assay [10], in assay [11] and in assay [12] was > 100 µM (inactive) in each case. Further, the GI50 in [13], in assay [14], in [15], in assay [16], in assay [17] and in assay [18] was > 100 µM (inactive) each time. Also, the GI50 in assay [19] and in assay [20] was > 100 µM (inactive) throughout.

For the compound `CCCCCC(C/C=N/N(C)C)C(O)(C(F)(F)F)C(F)(F)F` (stereo not given), the GI50 in assay [1] was 34.8 µM (inactive); in assay [2] it was 23.7 µM (inactive); in [3], 14.2 µM (inactive); in [4], 35.1 µM (inactive); in [5], 36.4 µM (inactive); in [6], 17.1 µM (inactive). For the same compound, the GI50 in [7] is 19.7 µM (inactive); in assay [8] it was 35.9 µM (inactive); in assay [9], 24.4 µM (inactive); in [10], 43.2 µM (inactive); in assay [11] it was 37 µM (inactive); in [12] it was 45.8 µM (inactive). The GI50 in [13] is 32 µM (inactive); in assay [14], 20.8 µM (inactive); in assay [15], 29 µM (inactive); in [16] it was 38.4 µM (inactive); in assay [17] it was 27.5 µM (inactive); in assay [18] it was 42.3 µM (inactive). Further, the values for the GI50 in assay [19] and in assay [20] were 36.7 µM (inactive) and 41.6 µM (inactive), respectively.

For the compound `O=C(OC(/C=C/c1ccccc1)P1(=O)N(Cc2ccccc2)[C@@H]2CCCC[C@H]2N1Cc1ccccc1)c1ccccc1` (stereo not given in full), the GI50 in [1] was 2.81 µM (inactive); in assay [2], 5.73 µM (inactive); in assay [3] it was 2.79 µM (inactive); in [4], 4.9 µM (inactive); in [5], 2.91 µM (inactive); in [6], 2.52 µM (inactive). Moreover, the GI50 is 3.17 µM (inactive) in assay [7]; 4.38 µM (inactive) in [8]; 3.81 µM (inactive) in [9]; 3.57 µM (inactive) in assay [10]; 5.43 µM (inactive) in assay [11]; 9.82 µM (inactive) in [12]. For the same compound, the GI50 was 3.78 µM (inactive) in [13]; 3.16 µM (inactive) in assay [14]; 3.18 µM (inactive) in [15]; 3.8 µM (inactive) in [16]; 2.82 µM (inactive) in assay [17]; 5.38 µM (inactive) in assay [18]. Moreover, the GI50 in assay [19] was 6.37 µM (inactive); in [20] it was 4.56 µM (inactive).

Regarding `CN(O)C(=O)Cc1ccc(OCc2cccc(Cl)c2)cc1`, the GI50 was > 100 µM (inactive) in assay [1]; 1.23 µM (inactive) in assay [2]; > 100 µM (inactive) in assay [3]; > 100 µM (inactive) in [4]; > 100 µM (inactive) in assay [5]; > 100 µM (inactive) in [6]. For the same compound, the GI50 in assay [7], in assay [8], in assay [9], in assay [10], in [11] and in [12] was > 100 µM (inactive) each time. In addition, the GI50 in assay [13], in assay [14], in [15], in assay [16], in [17] and in assay [18] was > 100 µM (inactive) each time. Moreover, the GI50 in assay [19] and in assay [20] was > 100 µM (inactive) in each case.

With `CCCCC1Cc2cc(O)ccc2-c2n1c1cc(O)ccc1[n+]2C.CCCCC1Cc2cc(O)ccc2-c2n1c1ccc(O)cc1[n+]2C` (stereo not given), the GI50 was 56.5 µM (inactive) in [1]; 31.9 µM (inactive) in [2]; 26.1 µM (inactive) in assay [3]; 28.2 µM (inactive) in assay [4]; 37.9 µM (inactive) in assay [5]; 9.59 µM (inactive) in [6]. For the same compound, the GI50 was 2.99 µM (inactive) in assay [7]; 26.5 µM (inactive) in [8]; 56 µM (inactive) in assay [9]; 39 µM (inactive) in [10]; 1.49 µM (inactive) in [11]; 6.64 µM (inactive) in [12]. Besides, the GI50 in [13] was 34 µM (inactive); in assay [14], 49.5 µM (inactive); in [15] it was 12.7 µM (inactive); in assay [16] it was 26.8 µM (inactive); in assay [17], 48 µM (inactive); in assay [18], 43.8 µM (inactive). Besides, the GI50 was 4.57 µM (inactive) in assay [19] and 0.476 µM (active) in assay [20].
